Data from PMC3928365, “Species-Selective Killing of Bacteria by Antimicrobial Peptide-PNAs” (PLoS ONE, 2014).

What was measured:
Assay in all cases: Antibiotic disc susceptibility testing (BSAC method)
Conditions in all cases: antibiotic disks (Oxoid), amount per disc per antibiotic (5-30 μg)
B. subtilis = format: cell-based, Bacillus subtilis
Procedure: Strains were tested with twenty different antibiotic disks (Oxoid, UK) representing the major classes of antimicrobial compounds. Tests were done according to the standardized disc susceptibility testing method of the British Society for Antimicrobial Chemotherapy, [37]. The minimum inhibitory concentration (MIC) of the peptide-PNA conjugants were determined using a method modified from Hacek et al and Friedman et al: Peptide-PNA conjugants, obtained as lyophilized powder (Panagene, Korea), were dissolved in ddH20. MIC assays were performed in an ultra low-bind (Costar, UK) polystyrene 96-well plate format in a final volume of 150 µl MMLB. An extended gradient of peptide-PNA concentrations was created by combining five sets of twofold serial dilutions from four starting concentrations (10, 4.8, 3.2 […]); giving 55 final peptide-PNA concentrations which extended over five rows of the 96-well plate. All cultures were incubated at 35°C for 16 h without shaking or agitation. Each peptide-PNA MIC calculation was performed in triplicate, each replicate representing a different starting colony. Mixed-culture experiments were conducted as above with a 1×10^4 CFU/ml starting inoculum. […] Growth (OD550) was monitored every 5 mins, each experiment was performed in triplicate.

E. coli = format: cell-based, Escherichia coli
Procedure: (§1) Strains were tested with twenty different antibiotic disks (Oxoid, UK) representing the major classes of antimicrobial compounds. Tests were done according to the standardized disc susceptibility testing method of the British Society for Antimicrobial Chemotherapy, [37]. The minimum inhibitory concentration (MIC) of the peptide-PNA conjugants were determined using a method modified from Hacek et al and Friedman et al: Peptide-PNA conjugants, obtained as lyophilized powder (Panagene, Korea), were dissolved in ddH20. MIC assays were performed in an ultra low-bind (Costar, UK) polystyrene 96-well plate format in a final volume of 150 µl MMLB. An extended gradient of peptide-PNA concentrations was created by combining five sets of twofold serial dilutions from four starting concentrations (10, 4.8, 3.2 […]); giving 55 final peptide-PNA concentrations which extended over five rows of the 96-well plate. All cultures were incubated at 35°C for 16 h without shaking or agitation. Each peptide-PNA MIC calculation was performed in triplicate, each replicate representing a different starting colony. Mixed-culture experiments were conducted as above with a 1×10^4 CFU/ml starting inoculum. For growth curve analysis, 200 µl cultures were grown in a BioTek PowerWave HT spectrophotometer, under constant agitation at 37°C in a 96-well plate covered with a breathable film. Growth (OD550) was monitored every 5 mins, each experiment was performed in triplicate.

K. pneumoniae = format: cell-based, Klebsiella pneumoniae
Procedure: as §1

S. Typhimurium = format: cell-based, Salmonella enterica serovar Typhimurium
Procedure: as §1

Row | Molecule | Sensitive (S)/Resistant (R), B. subtilis (B. subtilis) | Sensitive (S)/Resistant (R), E. coli (E. coli) | Sensitive (S)/Resistant (R), K. pneumoniae (K. pneumoniae) | Sensitive (S)/Resistant (R), S. Typhimurium (S. Typhimurium)
1 | CC1COc2c(N3CCN(C)CC3)c(F)cc3c(=O)c(C(=O)O)cn1c23 (stereo not shown) [Oflaxacin] | S | S | S | S
2 | CN[C@H](CC(C)C)C(=O)N[C@H]1C(=O)N[C@@H](CC(N)=O)C(=O)N[C@H]2C(=O)N[C@H]3C(=O)N[C@H](C(=O)N[C@H](C(=O)O)c4cc(O)cc(O)c4-c4cc3ccc4O)[C@H](O)c3ccc(c(Cl)c3)Oc3cc2cc(c3O[C@@H]2O[C@H](CO)[C@@H](O)[C@H](O)[C@H]2O[C@H]2C[C@](C)(N)[C@H](O)[C@H](C)O2)Oc2ccc(cc2Cl)[C@H]1O [Vancomycin] | – | R | R | R
3 | C[C@@H](O)[C@H]1C(=O)N2C(C(=O)O)=C(SCCN=CN)C[C@H]12 [Imipenem] | – | S | S | S
4 | COc1cc(Cc2cnc(N)nc2N)cc(OC)c1OC [Trimethoprim] | – | S | R | S
5 | CC1=C(C(=O)O)N2C(=O)[C@@H](NC(=O)[C@H](N)c3ccccc3)[C@H]2SC1 [Cefalexin] | – | S | S | S
6 | CO/N=C(\C(=O)N[C@@H]1C(=O)N2C(C(=O)O)=C(COC(C)=O)CS[C@H]12)c1csc(N)n1 [Cefotaxime] | – | S | S | S
7 | CC[C@H]1OC(=O)[C@H](C)[C@@H](O[C@H]2C[C@@](C)(OC)[C@@H](O)[C@H](C)O2)[C@H](C)[C@@H](O[C@@H]2O[C@H](C)C[C@H](N(C)C)[C@H]2O)[C@](C)(O)C[C@@H](C)CN(C)[C@H](C)[C@@H](O)[C@]1(C)O [Azithromycin] | – | R | R | R
8 | COc1cccc(OC)c1C(=O)N[C@@H]1C(=O)N2[C@@H]1SC(C)(C)[C@@H]2C(=O)O [Methicillin] | – | S | R | S
9 | CCn1cc(C(=O)O)c(=O)c2cnc(N3CCNCC3)nc21 [Pipemidic acid] | – | S | S | S
10 | NCC[C@H](O)C(=O)N[C@@H]1C[C@H](N)[C@@H](O[C@H]2O[C@H](CN)[C@@H](O)[C@H](O)[C@H]2O)[C@H](O)[C@H]1O[C@H]1O[C@H](CO)[C@@H](O)[C@H](N)[C@H]1O [Amikacin] | – | S | S | S
11 | CCn1cc(C(=O)O)c(=O)c2ccc(C)nc21 [Nalidixic acid] | – | S | S | S
12 | Neomycin | S | S | S | S
13 | CC[C@H]1OC(=O)[C@H](C)[C@@H](O[C@H]2C[C@@](C)(OC)[C@@H](O)[C@H](C)O2)[C@H](C)[C@@H](O[C@@H]2O[C@H](C)C[C@H](N(C)C)[C@H]2O)[C@](C)(O)C[C@@H](C)C(=O)[C@H](C)[C@@H](O)[C@]1(C)O [Erythromycin] | – | R | R | R
14 | CCC[C@@H]1C[C@@H](C(=O)N[C@@H]([C@H]2O[C@H](SC)[C@H](O)[C@@H](O)[C@H]2O)[C@@H](C)O)N(C)C1 [Lincomycin] | – | R | R | R
15 | CO/N=C(\C(=O)N[C@@H]1C(=O)N2C(C(=O)O)=C(COC(N)=O)CS[C@H]12)c1ccco1 [Cefuroxime] | – | S | S | S
16 | CCC[C@@H]1C[C@@H](C(=O)N[C@@H]([C@H]2O[C@H](SC)[C@H](O)[C@@H](O)[C@H]2O)[C@H](C)Cl)N(C)C1 [Clindamycin] | – | R | R | R
17 | CNC(C)C1CCC(N)C(OC2C(N)CC(N)C(OC3OCC(C)(O)C(NC)C3O)C2O)O1 (stereo not shown) [Gentamicin] | – | S | R | S
18 | CC1(C)S[C@@H]2[C@H](NC(=O)[C@H](N)c3ccc(O)cc3)C(=O)N2[C@H]1C(=O)O [Amoxicillin] | – | S | R | S
19 | CN1CCN(c2c(F)cc3c(=O)c(C(=O)O)cn(CCF)c3c2F)CC1 [Fleroxacin] | – | S | S | –
20 | [H]/N=C(/N)N[C@H]1[C@H](O)[C@@H](O)[C@H](O[C@@H]2O[C@@H](C)[C@](O)(C=O)[C@H]2O[C@@H]2O[C@@H](CO)[C@H](O)[C@@H](O)[C@@H]2NC)[C@@H](N/C(N)=N\[H])[C@@H]1O [Streptomycin] | – | R | S | S
